The source of these data is PubChem BioAssay (NCI).

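Values below derive from 48-hour exposures of cells grown in 96-well plates, with endpoints linearly interpolated between the two concentrations bracketing the appropriate inhibition level. TGI is the concentration that stops growth completely.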

The first assay deals with HT29 colon. Kind of assay: NCI anticancer screen, dose series, 48 h.
As for `COc1cccc(NC(=O)CSc2nnc(-c3ccc(NC(C)=O)cc3)o2)c1`, the TGI was greater than 100 µM.

In turn, `Clc1ccc(Nc2nc3ccccc3nc2-c2cccs2)cc1Cl` registered a TGI greater than 100 µM.

In the case of `CCn1c2ccccc2c2ccc3c(c21)C(=O)C=CC3=O`, the TGI was 42.1 µM.

Molecule `O=c1nc(NC2CCCCO2)ccn1CCO` (configuration not stated) gave a TGI greater than 100 µM.

On to `COC(=O)c1onc(-c2c(OC)cc(OC)cc2OC)c1C(=O)OC`, for which the TGI is greater than 100 µM.

The molecule `CCCP1(=O)C=C(C)C(=C(Cl)Cl)C(C)=C1` (configuration not stated) yielded a TGI greater than 100 µM.

Molecule `COc1cc(C2SCC(=O)N2c2cccc(Cl)c2)cc(OC)c1OC` (configuration not stated) gave a TGI greater than 100 µM.

In the case of `COC1/C=C/C(C)C(C(C)C(OC)C(C)CCC(=O)C(C)C(C/C=C/N(C)C=O)OC)OC(=O)C=CC2OC2(C)CC(OC)C(OC)C2=CC(=O)O[C@@H](C(C)C(OC)CC(OC)/C=C/C(C)C(O)C1)[C@H]2O` (some centres not stated), the TGI came to 0.0108 µM.

`CCCCCCCOc1ccc(/C=C\c2cc[n+](CCCCCCCC[n+]3ccc(/C=C\c4ccc(OCCCCCCC)cc4)cc3)cc2)cc1` had a TGI of 28.7 µM.

In the case of `NC(N)=NCCCC(NC(=O)c1cccc2c(=O)c3ccccc3[nH]c12)C(=O)O` (configuration not stated), the TGI was greater than 100 µM.

With `c1ccc2c(c1)C1CCCCCC21N1CCOCC1` (configuration not stated), the TGI was greater than 100 µM.

The molecule `COc1cccc(OC)c1C(=O)OCc1ccccc1` returned a TGI greater than 100 µM.

Regarding `O=C(CSc1nnc(Cc2ccccc2)o1)Nc1ccccc1`, the TGI was greater than 100 µM.

With `CC(=O)C1C(=O)C(=O)N(c2cccc([N+](=O)[O-])c2)C1=O` (configuration not stated), the TGI is greater than 100 µM.

In turn, `Cc1ccc(/C=C/C(=O)C(C)(C)CN2CCCCC2)cc1` registered a TGI of 12 µM.

As for `O=C1OC(Cc2ccccc2)(N2CCCC2=O)C1c1ccccc1` (configuration not stated), the TGI was greater than 100 µM.

`CC(=O)C(CN(CC(C)C)CC(C)C)C(c1ccccc1)c1c(O)c2ccccc2oc1=O` (configuration not stated): the TGI was greater than 100 µM.

A further assay relates to OVCAR-3 ovarian. The assay is described as follows: NCI anticancer screen, dose series, 48 h.
Molecule `COc1cccc(NC(=O)CSc2nnc(-c3ccc(NC(C)=O)cc3)o2)c1` came in with a TGI greater than 100 µM.

In turn, `Clc1ccc(Nc2nc3ccccc3nc2-c2cccs2)cc1Cl` showed a TGI greater than 100 µM.

In turn, `CCn1c2ccccc2c2ccc3c(c21)C(=O)C=CC3=O` returned a TGI of 26.6 µM.

`O=c1nc(NC2CCCCO2)ccn1CCO` (configuration not stated): the TGI was greater than 100 µM.

Regarding `COC(=O)c1onc(-c2c(OC)cc(OC)cc2OC)c1C(=O)OC`, the TGI was greater than 100 µM.

Consider `CCCP1(=O)C=C(C)C(=C(Cl)Cl)C(C)=C1` (configuration not stated), for which the TGI was greater than 100 µM.

`COC1/C=C/C(C)C(C(C)C(OC)C(C)CCC(=O)C(C)C(C/C=C/N(C)C=O)OC)OC(=O)C=CC2OC2(C)CC(OC)C(OC)C2=CC(=O)O[C@@H](C(C)C(OC)CC(OC)/C=C/C(C)C(O)C1)[C@H]2O` (some centres not stated) displayed a TGI of 0.0341 µM.

Molecule `CCCCCCCOc1ccc(/C=C\c2cc[n+](CCCCCCCC[n+]3ccc(/C=C\c4ccc(OCCCCCCC)cc4)cc3)cc2)cc1` displayed a TGI of 33.1 µM.

`NC(N)=NCCCC(NC(=O)c1cccc2c(=O)c3ccccc3[nH]c12)C(=O)O` (configuration not stated) came in with a TGI greater than 100 µM.

Molecule `c1ccc2c(c1)C1CCCCCC21N1CCOCC1` (configuration not stated) registered a TGI greater than 100 µM.

Regarding `COc1cccc(OC)c1C(=O)OCc1ccccc1`, the TGI was greater than 100 µM.

The molecule `O=C(CSc1nnc(Cc2ccccc2)o1)Nc1ccccc1` had a TGI greater than 100 µM.

In turn, `CC(=O)C1C(=O)C(=O)N(c2cccc([N+](=O)[O-])c2)C1=O` (configuration not stated) came in with a TGI greater than 100 µM.

With `Cc1ccc(/C=C/C(=O)C(C)(C)CN2CCCCC2)cc1`, the TGI was determined as 8.65 µM.

In turn, `O=C1OC(Cc2ccccc2)(N2CCCC2=O)C1c1ccccc1` (configuration not stated) had a TGI greater than 100 µM.

On to `CC(=O)C(CN(CC(C)C)CC(C)C)C(c1ccccc1)c1c(O)c2ccccc2oc1=O` (configuration not stated), for which the TGI is greater than 100 µM.

`CC1(C)OC(=O)C(C#N)=C1/C=C/c1coc2ccc(Cl)cc2c1=O`: the TGI is 46.2 µM.

For a further assay, the system named is SN12C renal. The assay is described as follows: NCI anticancer screen, dose series, 48 h.
On to `COc1cccc(NC(=O)CSc2nnc(-c3ccc(NC(C)=O)cc3)o2)c1`, for which the TGI was greater than 100 µM.

On to `Clc1ccc(Nc2nc3ccccc3nc2-c2cccs2)cc1Cl`, for which the TGI is greater than 100 µM.

The molecule `CCn1c2ccccc2c2ccc3c(c21)C(=O)C=CC3=O` came in with a TGI of 33.5 µM.

The molecule `O=c1nc(NC2CCCCO2)ccn1CCO` (configuration not stated) returned a TGI greater than 100 µM.

The molecule `CCCP1(=O)C=C(C)C(=C(Cl)Cl)C(C)=C1` (configuration not stated) yielded a TGI of 66.7 µM.

`COc1cc(C2SCC(=O)N2c2cccc(Cl)c2)cc(OC)c1OC` (configuration not stated) returned a TGI greater than 100 µM.

For the molecule `COC1/C=C/C(C)C(C(C)C(OC)C(C)CCC(=O)C(C)C(C/C=C/N(C)C=O)OC)OC(=O)C=CC2OC2(C)CC(OC)C(OC)C2=CC(=O)O[C@@H](C(C)C(OC)CC(OC)/C=C/C(C)C(O)C1)[C@H]2O` (some centres not stated), the TGI is 0.0342 µM.

For the molecule `CCCCCCCOc1ccc(/C=C\c2cc[n+](CCCCCCCC[n+]3ccc(/C=C\c4ccc(OCCCCCCC)cc4)cc3)cc2)cc1`, the TGI came out at 57 µM.

In turn, `NC(N)=NCCCC(NC(=O)c1cccc2c(=O)c3ccccc3[nH]c12)C(=O)O` (configuration not stated) registered a TGI greater than 100 µM.

With `c1ccc2c(c1)C1CCCCCC21N1CCOCC1` (configuration not stated), the TGI is greater than 100 µM.

`COc1cccc(OC)c1C(=O)OCc1ccccc1`: the TGI was greater than 100 µM.

`O=C(CSc1nnc(Cc2ccccc2)o1)Nc1ccccc1`: the TGI is greater than 100 µM.

In turn, `CC(=O)C1C(=O)C(=O)N(c2cccc([N+](=O)[O-])c2)C1=O` (configuration not stated) had a TGI greater than 100 µM.

On to `Cc1ccc(/C=C/C(=O)C(C)(C)CN2CCCCC2)cc1`, for which the TGI is 15.1 µM.

`O=C1OC(Cc2ccccc2)(N2CCCC2=O)C1c1ccccc1` (configuration not stated) registered a TGI greater than 100 µM.

`CC(=O)C(CN(CC(C)C)CC(C)C)C(c1ccccc1)c1c(O)c2ccccc2oc1=O` (configuration not stated) gave a TGI greater than 100 µM.

Turning to `CC1(C)OC(=O)C(C#N)=C1/C=C/c1coc2ccc(Cl)cc2c1=O`, the TGI is 96 µM.

The subject of a further assay is COLO 205 colon. Kind of assay: NCI anticancer screen, dose series, 48 h.
Consider `COc1cccc(NC(=O)CSc2nnc(-c3ccc(NC(C)=O)cc3)o2)c1`, for which the TGI was greater than 100 µM.

Take `Clc1ccc(Nc2nc3ccccc3nc2-c2cccs2)cc1Cl`: the TGI is greater than 100 µM.

`CCn1c2ccccc2c2ccc3c(c21)C(=O)C=CC3=O` gave a TGI of 24.1 µM.

Molecule `O=c1nc(NC2CCCCO2)ccn1CCO` (configuration not stated) showed a TGI greater than 100 µM.

As to `COC(=O)c1onc(-c2c(OC)cc(OC)cc2OC)c1C(=O)OC`, the TGI is greater than 100 µM.

With `CCCP1(=O)C=C(C)C(=C(Cl)Cl)C(C)=C1` (configuration not stated), the TGI was greater than 100 µM.

Molecule `COc1cc(C2SCC(=O)N2c2cccc(Cl)c2)cc(OC)c1OC` (configuration not stated) showed a TGI greater than 100 µM.

As to `CCCCCCCOc1ccc(/C=C\c2cc[n+](CCCCCCCC[n+]3ccc(/C=C\c4ccc(OCCCCCCC)cc4)cc3)cc2)cc1`, the TGI came to 58.7 µM.

`NC(N)=NCCCC(NC(=O)c1cccc2c(=O)c3ccccc3[nH]c12)C(=O)O` (configuration not stated) returned a TGI greater than 100 µM.

`c1ccc2c(c1)C1CCCCCC21N1CCOCC1` (configuration not stated) came in with a TGI greater than 100 µM.

On to `COc1cccc(OC)c1C(=O)OCc1ccccc1`, for which the TGI was greater than 100 µM.

In the case of `O=C(CSc1nnc(Cc2ccccc2)o1)Nc1ccccc1`, the TGI was greater than 100 µM.

Turning to `CC(=O)C1C(=O)C(=O)N(c2cccc([N+](=O)[O-])c2)C1=O` (configuration not stated), the TGI was greater than 100 µM.

For the molecule `Cc1ccc(/C=C/C(=O)C(C)(C)CN2CCCCC2)cc1`, the TGI worked out at 17.2 µM.

Regarding `O=C1OC(Cc2ccccc2)(N2CCCC2=O)C1c1ccccc1` (configuration not stated), the TGI is greater than 100 µM.

The molecule `CC(=O)C(CN(CC(C)C)CC(C)C)C(c1ccccc1)c1c(O)c2ccccc2oc1=O` (configuration not stated) came in with a TGI greater than 100 µM.
